Assay results reported in US7265130B2, “NPY Y5 antagonist” (Shionogi & Co., Ltd., priority 1999, dated 2007).

Legend:
human NPY Y5 receptor [1] = target: T1, human NPY Y5 receptor (Homo sapiens, UniProt Q15761); assay: cAMP production inhibitory activity in CHO cells; assay type: cell-based; conditions: against 50 nM NPY inhibition of forskolin stimulated cAMP, CHO cells expressing human NPY Y5 receptor
T1 construct: expressed in transfected cells
T1 sequence (Q15761 1-445): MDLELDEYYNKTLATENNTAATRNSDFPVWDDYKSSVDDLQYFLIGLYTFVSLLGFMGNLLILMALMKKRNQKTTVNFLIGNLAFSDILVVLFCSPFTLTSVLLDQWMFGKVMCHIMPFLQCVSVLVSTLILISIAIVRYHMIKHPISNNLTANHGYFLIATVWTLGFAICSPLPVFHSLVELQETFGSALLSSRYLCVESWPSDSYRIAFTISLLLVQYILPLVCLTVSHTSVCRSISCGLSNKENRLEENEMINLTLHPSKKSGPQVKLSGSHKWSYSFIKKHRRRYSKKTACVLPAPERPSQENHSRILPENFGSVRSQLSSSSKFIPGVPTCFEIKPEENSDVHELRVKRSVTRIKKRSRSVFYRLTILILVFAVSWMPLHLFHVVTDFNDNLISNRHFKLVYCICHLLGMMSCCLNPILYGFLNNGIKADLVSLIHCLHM
Description: Experiment 2 cAMP production inhibitory activity in CHO cells
After CHO cells expressing human NPY Y5 receptor were incubated in the presence of 2.5 mM isobutylmethylxanthine (SIGMA) at 37° C. for 20 min., the compound of the present invention was added and incubated for 5 min. Then, 50 nM NPY and 10 μM forskolin (SIGMA) were added to the cells and incubated for 30 min. After the reaction was terminated by adding 1N HCl, the amount of cAMP in the supernatant was measured with EIA kit (Amersham LIFE SCIENCE).

human NPY Y5 receptor [2] = target: T1, human NPY Y5 receptor; assay: Affinity for NPY Y5 receptor ([125I] peptide YY binding, CHO cell membranes); conditions: inhibition of specific [125I] peptide YY binding, membranes of CHO cells expressing NPY Y5 receptor
Text: Experiment 1 Affinity for NPY Y5 Receptor
cDNA sequence encoding a human NPY Y5 receptor (WO096/16542) was cloned in the expression vector pME18S (Takebe et al. Mol. Cell. Biol. 8, 8957). The obtained expression vector was transfected into a host CHO cells by using a Lipofect AMINE reagent (Trademark, Gibco BRL Co., Ltd.) according to an instruction protocol to obtain the cells that stably express NPY Y5 receptor.
The membranes prepared from the above CHO cells expressing NPY Y5 receptor, the compound of the present invention and 30,000 cpm [^125I] peptide YY (60 pM of final concentration: Amersham) were incubated in the assay buffer (20 mM HEPES-Hanks buffer containing 0.1% bovine serum albumin, pH 7.4) at 25° C. for 2 hours, and then the mixture was filtered with a glassfilter GF/C treated with polyethyleneimine. After the glassfilter was washed with 50 mM Tris-HCl buffer (pH 7.4), the radioactivity on the filter was measured with a gamma counter. The non-specific binding was detected in the presence of 200 nM of peptide YY. The 50% inhibitory concentration of the test compound against the specific peptide YY binding (IC50 value) was calculated (Inui, A. et al. Endocrinology 131, 2090-2096 (1992)).

SMILES	IC50 (human NPY Y5 receptor [1])	IC50 (human NPY Y5 receptor [2])
CCCCc1ccc(C(=O)Nc2ccc(NS(=O)(=O)C(C)C)cc2)cc1 [Compound I-2]	72 nM	7.5 nM
CCCCc1ccc(NC(=O)CCCCNS(=O)(=O)C(C)C)cc1 [Compound I-7]	< 10 nM	3 nM
CCCCc1ccc(NC(=O)CCCCNS(=O)(=O)C(C)(C)C)cc1 [Compound I-11]	5 nM	1.3 nM
CCCCc1ccc(NC(=O)C2CCC(NS(=O)(=O)C(C)(C)C)CC2)cc1 (stereo not shown) [Compound I-18]	29 nM	4.4 nM
CCCCc1ccc(C(=O)NCCCCNS(=O)(=O)C(C)(C)C)cc1 [Compound I-20]	21 nM	7 nM
CCCCc1ccc(NC(=O)C2CCC(NS(=O)(=O)C(C)(C)C)CC2)cc1 (stereo not shown) [Compound I-22]	51 nM	8.6 nM
CCCCc1ccc(NC(=O)C2CCC(CNS(=O)(=O)C(C)(C)C)CC2)cc1 (stereo not shown) [Compound I-24]	71 nM	9.6 nM
CCCCc1ccc(NC(=O)C2CCC(NS(=O)(=O)C(C)(C)C)CC2)cc1 (stereo not shown) [Compound I-25]	2.6 nM	0.6 nM
CCN(CC)c1ccc(NC(=O)C2CCC(NS(=O)(=O)C(C)(C)C)CC2)cc1 (stereo not shown) [Compound I-44]	13.4 nM	1 nM
CC(C)(C)S(=O)(=O)NC1CCC(C(=O)Nc2ccc(Oc3ccccc3)cc2)CC1 (stereo not shown) [Compound I-50]	8.4 nM	0.3 nM
CC(C)(C)S(=O)(=O)NC1CCC(C(=O)Nc2ccc(N3CCN(c4ccccc4)CC3)cc2)CC1 (stereo not shown) [Compound I-53]	21 nM	4.1 nM
CC(C)(C)S(=O)(=O)NC1CCC(C(=O)Nc2ccc(N3CCN(c4ncccn4)CC3)cc2)CC1 (stereo not shown) [Compound I-55]	40 nM	9 nM
CCOC(=O)C1CCN(c2ccc(NC(=O)C3CCC(NS(=O)(=O)C(C)(C)C)CC3)cc2)CC1 (stereo not shown) [Compound I-57]	47 nM	4.8 nM
CC(C)(C)S(=O)(=O)NC1CCC(C(=O)Nc2ccc(N3CCc4ccccc4C3)cc2)CC1 (stereo not shown) [Compound I-60]	18 nM	0.69 nM
CC(C)(C)S(=O)(=O)NC1CCC(C(=O)Nc2ccc(-n3cnc(Cl)c3Cl)cc2)CC1 (stereo not shown) [Compound I-62]	16 nM	0.58 nM
CC(C)(C)S(=O)(=O)NC1CCC(C(=O)Nc2ccc(-c3ccc(N4CCCCC4)cc3)cc2)CC1 (stereo not shown) [Compound I-65]	72 nM	1.8 nM
CC(=O)Nc1cccc(NC(=O)C2CCC(NS(=O)(=O)C(C)(C)C)CC2)c1 (stereo not shown) [Compound I-67]	17 nM	2 nM
CC(C)(C)S(=O)(=O)NC1CCC(C(=O)Nc2ccc(N3CCc4ccccc43)cc2)CC1 (stereo not shown) [Compound I-75]	3.4 nM	0.55 nM
CC(C)(C)S(=O)(=O)NC1CCC(C(=O)Nc2ccc(-n3ccc4ccccc43)cc2)CC1 (stereo not shown) [Compound I-76]	5.5 nM	0.61 nM
CC(C)(C)S(=O)(=O)NC1CCC(C(=O)Nc2ccc(-n3cccn3)cc2)CC1 (stereo not shown) [Compound I-77]	28 nM	1.8 nM

SMILES	IC50 (human NPY Y5 receptor [1])	IC50 (human NPY Y5 receptor [2])
CC(C)(C)S(=O)(=O)NC1CCC(C(=O)Nc2ccc(-c3csnn3)cc2)CC1 (stereo not shown) [Compound I-79]	25 nM	0.59 nM
CC(C)(C)S(=O)(=O)NC1CCC(C(=O)Nc2ccc(Nc3ccccc3)cc2)CC1 (stereo not shown) [Compound I-83]	29 nM	0.61 nM
CC(C)(C)S(=O)(=O)NC1CCC(C(=O)Nc2ccc(-n3ncnn3)cc2)CC1 (stereo not shown) [Compound I-84]	25 nM	1.3 nM
CC(C)(C)S(=O)(=O)NC1CCC(C(=O)Nc2ccc(N(CCO)CCO)cc2)CC1 (stereo not shown) [Compound I-86]	100 nM	3.4 nM
COC(=O)CCCc1ccc(NC(=O)C2CCC(NS(=O)(=O)C(C)(C)C)CC2)cc1 (stereo not shown) [Compound I-87]	21 nM	0.66 nM
CC(C)(C)S(=O)(=O)NC1CCC(C(=O)Nc2ccc(N3CCC(O)C3)cc2)CC1 (stereo not shown) [Compound I-90]	50 nM	2.8 nM
CCCCc1ccc(NC(=O)c2ccc(N[S+]([O-])C(C)(C)Cl)cc2)cc1 (stereo not shown) [Compound I-92]	61 nM	7 nM
CCCCc1ccc(NC(=O)c2ccc(N[S+]([O-])C(C)(C)C)cc2)cc1 (stereo not shown) [Compound I-101]	38 nM	3.9 nM
CCCCc1ccc(NC(=O)c2ccc(NS(=O)(=O)C(C)(C)C)cc2)cc1 [Compound I-102]	14 nM	1.7 nM
CCCCc1ccc(NC(=O)c2ccc(NS(=O)(=O)C(C)(C)Cl)cc2)cc1 [Compound I-106]	29 nM	6.4 nM
CCCCc1ccc(NC(=O)CCCCNS(=O)(=O)C(C)(C)CC)cc1 [Compound I-109]	3.2 nM	1.2 nM
CCCCc1ccc(NC(=O)CCCCNS(=O)(=O)CC(C)C)cc1 [Compound I-110]	13.6 nM	4.3 nM
CCCCc1ccc(NC(=O)CCCCNS(=O)(=O)C(C)CC)cc1 (stereo not shown) [Compound I-111]	6.1 nM	1.8 nM
CCCCc1ccc(NC(=S)CCCCNS(=O)(=O)CC(C)C)cc1 [Compound I-114]	30 nM	7 nM
CCCCOc1ccc(NC(=O)CCCCNS(=O)(=O)C(C)CC)cc1 (stereo not shown) [Compound I-116]	11 nM	1.2 nM
CC(C)(C)S(=O)(=O)NC1CCC(C(=O)Nc2ccc(-c3ccc(-c4ccccc4)cc3)cc2)CC1 (stereo not shown) [Compound I-136]	–	2.8 nM
COc1ccc(Cl)cc1NC(=O)C1CCC(NS(=O)(=O)C(C)(C)C)CC1 (stereo not shown) [Ia-35]	–	1.8 nM
CC(C)S(=O)(=O)N[C@H]1CC[C@H](C(=O)Nc2ccc3oc(=O)ccc3c2)CC1 [Ia-76]	–	2.2 nM
CC(C)(C)S(=O)(=O)N[C@H]1CC[C@H](C(=O)Nc2ccc3c(c2)C(=O)N(c2ccccc2)C3=O)CC1 [Ia-79]	–	0.82 nM
CC(C)S(=O)(=O)NC1CCC(C(=O)Nc2ccc(-c3ncco3)cc2)CC1 (stereo not shown) [Ia-184]	–	0.38 nM

SMILES	IC50 (human NPY Y5 receptor [1])	IC50 (human NPY Y5 receptor [2])
CC(C)(C)S(=O)(=O)NC1CCC(C(=O)Nc2cccc(-c3ccco3)c2)CC1 (stereo not shown) [Ia-209]	–	0.55 nM
Cc1cc(=O)oc2cc(NC(=O)[C@H]3CC[C@H](NS(=O)(=O)C(C)C)CC3)ccc12 [Ia-227]	–	0.59 nM
Cc1cc(=O)oc2cc(NC(=O)CCCCNS(=O)(=O)C(C)(C)C)ccc12 [Ia-228]	–	0.96 nM
Cc1cc(=O)oc2cc(NC(=O)CCCCNS(=O)(=O)C(C)C)ccc12 [Ia-229]	–	1.9 nM
CC(C)CN1C(=O)c2ccc(NC(=O)[C@H]3CC[C@H](NS(=O)(=O)C(C)(C)C)CC3)cc2C1=O [Ia-230]	–	0.32 nM
CC(C)CN1C(=O)c2ccc(NC(=O)[C@H]3CC[C@H](NS(=O)(=O)C(C)C)CC3)cc2C1=O [Ia-231]	–	0.29 nM
CC(C)CN1C(=O)c2ccc(NC(=O)CCCCNS(=O)(=O)C(C)(C)C)cc2C1=O [Ia-232]	–	0.7 nM
CC(C)CN1C(=O)c2ccc(NC(=O)CCCCNS(=O)(=O)C(C)C)cc2C1=O [Ia-233]	–	0.63 nM
CC(C)(C)S(=O)(=O)NC1CCC(C(=O)Nc2nc3ccccc3s2)CC1 (stereo not shown) [Ia-235]	–	5.5 nM
CC(C)(C)S(=O)(=O)NC1CCN(C(=O)Nc2ccc(C(F)(F)F)cn2)CC1 [Ia-241]	–	1.9 nM
Cc1cc(C(=O)NC(C)C)ccc1NC(=O)N1CCC(NS(=O)(=O)C(C)(C)C)CC1 [Ia-243]	–	1.3 nM
CC(C)(C)S(=O)(=O)NC1CCC(C(=O)Nc2ccc3occc3c2)CC1 (stereo not shown) [Ia-250]	–	1.9 nM
CC(C)S(=O)(=O)NC1CCC(C(=O)Nc2ccc(OC(C)(C)C)cc2)CC1 (stereo not shown) [Ia-252]	–	1.2 nM
CC(C)(C)Oc1ccc(NC(=O)CCCCNS(=O)(=O)C(C)(C)C)cc1 [Ia-253]	–	0.53 nM
CC(C)(C)Oc1ccc(NC(=O)N2CCC(NS(=O)(=O)C(C)(C)C)CC2)cc1 [Ia-254]	–	2 nM
CC(C)(C)S(=O)(=O)NCCCCC(=O)Nc1ccc(N2CCCS2(=O)=O)cc1 [Ia-255]	–	3.2 nM
CC(C)(C)S(=O)(=O)NC1CCN(C(=O)Nc2ccc(N3CCCS3(=O)=O)cc2)CC1 [Ia-256]	–	5.7 nM
CC(C)(C)S(=O)(=O)NCCCCC(=O)Nc1ccc(OC2CCOCC2)cc1 [Ia-257]	–	8.6 nM
CC(C)S(=O)(=O)NC1CCC(C(=O)Nc2ccc(OC3CCOCC3)cc2)CC1 (stereo not shown) [Ia-258]	–	1.8 nM
